How the values were obtained:
Assay type in all cases: in vivo
[1] = test system: human patients with type-1 diabetes and affected by non-proliferative diabetic retinopathy; test: Clinical study: visual acuity assessed by eye chart; settings: one tablet daily, 100 mg cloricromene hydrochloride; start of study versus one-year; 20 patients
Experimental: (§1) A clinical study was conducted in order to test the safety and efficacy of the compounds for treating ophthalmic disorders. The study included 40 human patients with type-1 diabetes and affected by non-proliferative diabetic retinopathy. Twenty of the patients received one tablet daily containing cloricromene hydrochloride (100 mg), whereas twenty of the patients formed a control group and received no treatment. Patients were randomly assigned either to receive cloricromene or to receive no treatment. The patients included males and females over 45 years of age assessed with type-1 diabetes mellitus and non-proliferative retinopathy assessed by fundus photography and fluoroscein angiography. For patients with bilateral disease, both eyes were evaluated. For patients with unilateral disease, the affected eye served as the study eye. Excluded from the study were subjects: affected with proliferative diabetic retinopathy; having visual acuity less than 2/10; with a history of renal failure; or receiving treatment with anti-coagulants, platelet anti-aggregants, or fibrinolytics.
(§2) The results summarized in the following tables are based on start of study versus one-year study period. Visual acuity was assessed by the patients' use of an eye chart. The presence of hemorrhaging, hard exudates or vascular leakage in the retina was evaluated as a means of grading degree of retinal lesion. Hemorrhaging and hard exudates were assessed primarily by observing the stereoscopic color fundus photographs of the retain. Vascular leakage was assessed primarily by fluorescein staining.

[2] = test system: human patients with type-1 diabetes and affected by non-proliferative diabetic retinopathy; test: Clinical study: hard exudates in the retina (stereoscopic color fundus photographs); settings: one tablet daily, 100 mg cloricromene hydrochloride; start of study versus one-year; 20 patients
Experimental: as §1, §2

[3] = test system: human patients with type-1 diabetes and affected by non-proliferative diabetic retinopathy; test: Clinical study: retinal hemorrhages (stereoscopic color fundus photographs); settings: one tablet daily, 100 mg cloricromene hydrochloride; start of study versus one-year; 20 patients
Experimental: as §1, §2

[4] = test system: human patients with type-1 diabetes and affected by non-proliferative diabetic retinopathy; test: Clinical study: retinal vascular leakage (fluorescein staining); settings: one tablet daily, 100 mg cloricromene hydrochloride; start of study versus one-year; 20 patients
Experimental: as §1, §2

[5] = test system: human patients with type-1 diabetes and affected by non-proliferative diabetic retinopathy; test: Clinical study: overall progression of retinal damage; settings: one tablet daily, 100 mg; one-year study period; versus untreated controls
Experimental: as §1, with “Excluded from the study were subjects: affected with proliferative diabetic retinopathy; having visual acuity less than 2/10; with a history of renal failure; or receiving treatment with anti-coagulants, platelet anti-aggregants, or fibrinolytics.” left out
as §2

SMILES: CCOC(=O)COc1ccc2c(C)c(CCN(CC)CC)c(=O)oc2c1Cl [Cloricromene, cloricromene]
- Visual Acuity: Improved, number of patients (%) [1]: 11 (55%)
- Visual Acuity: Stable, number of patients (%) [1]: 8 (40%)
- Visual Acuity: Worse, number of patients (%) [1]: 1 (5%)
- Hard Exudates: Improved, number of patients (%) [2]: 14 (70%)
- Hard Exudates: Stable, number of patients (%) [2]: 6 (30%)
- Hard Exudates: Worse, number of patients (%) [2]: 0 (0%)
- Retinal Hemorrhages: Improved, number of patients (%) [3]: 13 (65%)
- Retinal Hemorrhages: Stable, number of patients (%) [3]: 6 (30%)
- Retinal Hemorrhages: Worse, number of patients (%) [3]: 1 (5%)
- Vascular Leakage: Improved, number of patients (%) [4]: 3 (15%)
- Vascular Leakage: Stable, number of patients (%) [4]: 16 (80%)
- Vascular Leakage: Worse, number of patients (%) [4]: 1 (5%)
- progression of retinal damage in diabetic patients [5]: effective in delaying the progression of retinal damage

Reference: US20050054586A1, “Treatment of ophthalmic disorders” (priority 2003, published 2005)
